Data published in patent US4347319A, “Microbiological epoxidation process” (priority 1980, dated 1982).
Where two headings read alike, the source gives them in different places.

How the values were obtained:
[1] = test system: Methylomonas rosaceus (CRL M10P) NRRL B-11,212; assay type: cell-based
Method: The pH of the nutrient medium was adjusted to 7.0 by the addition of acid or base and 50 ml samples of the nutrient medium were charged into a plurality of 300 ml shaker flasks. The shaker flasks were inoculated with an inoculating loop of cells from an agar plate containing homogeneous colonies of the microorganisms on the plate (the purity of the isolates was confirmed by microscopic examination. The isolates had been maintained on agar plates under an atmosphere of methane and air having a 1:1 v/v gas ratio which had been transferred evey two weeks. The gaseous phase of the inoculated flasks was then replaced with a gas mixture comprised of methane and air having a ratio of 1:1 on a v/v basis. The inoculated flasks were sealed air tight and were incubated on a rotary shaker of orbital radius 2.5 cm at 250 rpm and at 30° C. for two days until turbidity in the medium had developed.
The cells were harvested by centrifugation at 10,000×g. at 4° C. for 30 minutes. The cell pellet was washed twice with a 0.15 M phosphate buffer at a pH of 7.0 (containing 0.002 M MgCl2). The washed cells were then suspended in a 0.15 M phosphate buffer at pH 7.0.
A 0.5 ml sample of each washed cell suspension (2 mg cells) was put into 10 ml vials at 4° C. which were sealed with a rubber cap. The gaseous phase of the vials was removed with vacuum and then was replaced with a gas mixture of the oxidative substrate (e.g., methane) and oxygen at a 1:1 v/v ratio. The vials were then incubated at 30 ° C. on a rotary shaker at 300 rpm. Samples of product (3 μl) were withdrawn periodically with a microsyringe and the products were analyzed by gas chromatography (ionization flame detector column).
The newly discovered and isolated microorganism strains of the present invention were each grown aerobically in the presence of methane in the manner described above. The methane-grown microbial cells were then washed, recovered and put to use in oxidizing an oxidative substrate by the procedure described above except in the case of a liquid substrate 10 μl of the substrate were used.

[2] = target: T1, cell fractions of Methylosinus sp. (CRL-15, NRRL B-11,202) (Methylosinus trichosporium, UniProt Q50541+Q9KX50+Q9KX51); assay: Oxidation by cell fractions P(40), P(80), S(80); assay type: biochemical; conditions: for Rate of Product Formation: P(40) particulate fraction, alkene to epoxide, alkane to alcohol; for Rate of Product Formation / Oxidizing Activity (rate of oxidation) in cell fraction: 30° C.; for Conversion Rate: particulate P(40) fraction, n-propane to 2-propanol, n-butane to 2-butanol; for 100% activity, product formed (storage study) / 100% activity, product formed (pH study) / 100% activity, product formed (temperature study) / Oxidizing Activity (rate of oxidation) in cell fraction: methane to methanol, propylene to propylene oxide; for 100% activity, product formed (pH study): optimum pH 7.0; for 100% activity, product formed (temperature study): optimum temperature 35° C.; for % Distribution in Cell Fraction: propylene-epoxidizing / methane-hydroxylating activity; for Product Formed / O2 Consumed / NADH Oxidized: stoichiometry, 5.0 μ moles substrate; for Product Formed: gas chromatography; for O2 Consumed: polarographically; for NADH Oxidized: spectrophotometrically
T1 sequence (Q9KX50 40-431): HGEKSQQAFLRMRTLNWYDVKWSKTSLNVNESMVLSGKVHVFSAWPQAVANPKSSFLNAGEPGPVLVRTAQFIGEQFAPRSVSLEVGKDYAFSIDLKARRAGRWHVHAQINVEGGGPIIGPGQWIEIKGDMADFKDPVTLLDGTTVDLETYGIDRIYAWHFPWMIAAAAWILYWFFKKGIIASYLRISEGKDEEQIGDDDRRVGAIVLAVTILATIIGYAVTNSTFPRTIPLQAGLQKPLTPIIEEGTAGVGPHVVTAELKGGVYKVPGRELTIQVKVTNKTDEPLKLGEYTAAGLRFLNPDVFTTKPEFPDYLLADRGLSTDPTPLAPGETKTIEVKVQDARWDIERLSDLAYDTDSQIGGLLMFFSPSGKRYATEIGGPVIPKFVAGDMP
T1 sequence (Q50541 1-252): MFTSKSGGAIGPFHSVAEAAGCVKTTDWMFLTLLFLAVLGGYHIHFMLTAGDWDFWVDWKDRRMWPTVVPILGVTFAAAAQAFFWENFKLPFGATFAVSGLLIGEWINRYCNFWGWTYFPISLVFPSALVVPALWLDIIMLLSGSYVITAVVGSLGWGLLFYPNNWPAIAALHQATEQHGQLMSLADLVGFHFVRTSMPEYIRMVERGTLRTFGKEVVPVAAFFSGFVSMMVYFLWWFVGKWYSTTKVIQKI
T1 sequence (Q9KX51 1-256): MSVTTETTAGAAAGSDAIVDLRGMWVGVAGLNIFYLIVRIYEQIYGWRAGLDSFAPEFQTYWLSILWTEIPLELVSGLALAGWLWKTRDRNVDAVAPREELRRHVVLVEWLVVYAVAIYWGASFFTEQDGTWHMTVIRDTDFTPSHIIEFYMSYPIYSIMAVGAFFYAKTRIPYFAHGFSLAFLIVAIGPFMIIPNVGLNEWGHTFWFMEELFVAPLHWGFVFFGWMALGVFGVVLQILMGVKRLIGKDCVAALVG
Method: (§1) Cells were washed twice with 25 mM potassium phosphate buffer, pH 7.0 containing 5 mM MgCl2. Cells were suspended in the same buffer. The cell suspensions at 4° C. were disintegrated by a single passage through a French Pressure cell (15,000 lb./in.^2) and centrifuged at 5000×g. for 15 min. to remove unbroken bacteria. The supernatant solution (crude extract) was then centrifuged at 40,000×g. for 30 min., yielding particulate P(40) and soluble S(40) fractions. The S(40) fraction was subsequently centrifuged at 80,000×g. for 60 min., yielding particulate P(80) and soluble S(80) fractions. The particulate fractions [P(40) and P(80)] were suspended in 25 mM potassium phosphate buffer, pH 7.0, containing 5 mM MgCl2 and homogenized at 4° C.
(§2) The oxidation of methane and propylene by particulate [(P)40 and (P)80] fractions and soluble [S(80)] fraction was measured at 30° C. by estimating the production of methanol and propylene oxide, respectively. The reaction mixtures contained in […]: 150 mM potassium phosphate buffer, pH 7.0 containing 5 mM MgCl2 b, 0.6 ml; 10μ moles NADH, and cellular fraction.
(§3) Reaction mixtures were contained in 10 ml vials at 4° C. Vials were sealed with rubber caps. The gaseous phase in the vials was removed using vacuum and then was replaced with a gas mixture of methane or propylene and oxygen at a 1:1, v/v ratio. Oxidation of other gaseous n-alkanes and n-alkanes was examined as described above. For liquid substrates, 10 μl of substrate was used directly.
(§4) The products of epoxidation of n-alkenes and hydroxylation of n-alkanes were assayed by flame ionization gas chromatography using a stainless steel column (12'×1/8") packed with 10% Carbowax 20 M on 80/100 Chromosorb W and Porapak Q column. The column temperature was maintained isothermally at 120° C. The carrier gas flow rate was 30 ml/min. of helium. The various products were identified by retention time comparisons and co-chromatography with authentic standards.
(§5) Specific activities were expressed as μ moles of products formed per hour per mg. protein. Concentrations of protein in various fractions were determined by the method of Lowry et al., J. Biol. Chem., 193: 265-275 (1951).

[3] = target: T2, cell fractions of Methylosinus trichosporium (OB3b, NRRL B-11,196) (Methylosinus trichosporium, UniProt Q50541+Q9KX50+Q9KX51); assay type: biochemical; conditions: for Conversion Rate: particulate P(40) fraction, n-propane to 2-propanol, n-butane to 2-butanol; for Oxidizing Activity (rate of oxidation) in cell fraction: propylene to propylene oxide, methane to methanol, 30° C.; for % Distribution in Cell Fraction: propylene-epoxidizing / methane-hydroxylating activity
T2 sequence (Q9KX50 40-431): T1 sequence (Q9KX50 40-431)
T2 sequence (Q50541 1-252): T1 sequence (Q50541 1-252)
T2 sequence (Q9KX51 1-256): T1 sequence (Q9KX51 1-256)
Method: as §1, §2, §3, §4, §5

SMILES | Rate of Product Formation [2] | Conversion Rate [2] | Conversion Rate [3] | Oxidative Conversion Rates [1] | 100% activity, product formed (storage study) ([2]; P(40)) | 100% activity, product formed (pH study) ([2]; P(40)) | 100% activity, product formed (temperature study) ([2]; P(40)) | Oxidizing Activity (rate of oxidation) in cell fraction ([2]; P(40)) | % Distribution in Cell Fraction ([2]; P(40)) [%] | Oxidizing Activity (rate of oxidation) in cell fraction ([2]; P(80)) | % Distribution in Cell Fraction ([2]; P(80)) [%] | Oxidizing Activity (rate of oxidation) in cell fraction ([2]; S(80)) | % Distribution in Cell Fraction ([2]; S(80)) [%] | Product Formed ([2]; P(40)) [μ moles] | O2 Consumed ([2]; P(40)) [μ moles] | NADH Oxidized ([2]; P(40)) [μ moles] | Oxidizing Activity (rate of oxidation) in cell fraction ([3]; P(40)) | % Distribution in Cell Fraction ([3]; P(40)) [%] | Oxidizing Activity (rate of oxidation) in cell fraction ([3]; P(80)) | % Distribution in Cell Fraction ([3]; P(80)) [%] | other results
C=CC=C [Butadiene] | 0.63 μ moles/hr/mg of protein | – | – | – | – | – | – | – | – | – | – | – | – | – | – | – | – | – | – | – | Oxidative Conversion Rates ([1]; methane-grown washed cells, 30° C., methane to methanol, alkene to 1,2-epoxide): 9.2 μmole/hr/mg protein
CCCC [Butane] | – | 0.89 μmoles/hr/2.0mg. of protein | 0.79 μmoles/hr/2.0mg. of protein | – | – | – | – | – | – | – | – | – | – | – | – | – | – | – | – | – | –
C [Methane] | 4.8 μ moles/hr/mg of protein | – | – | 7.3 | 4.8 μmoles per hr. per mg. of prot | 4.8 μmoles per hour per mg protein | 5.0 μmoles per hour per mg of prot | 4.8 μ moles of products formed per | 88 | 4.2 μ moles of products formed per | 12 | 0 μ moles of products formed per | 0 | 4.2 | 4.6 | 4.8 | 3.1 μ moles of products formed per | 83 | 3.0 μ moles of products formed per | 13 | –
CCC [Propane] | – | 1.5 μmoles/hr/2.0mg. of protein | 1.32 μmoles/hr/2.0mg. of protein | – | – | – | – | – | – | – | – | – | – | – | – | – | – | – | – | – | –
C=CC [Propylene] | 4.1 μ moles/hr/mg of protein | – | – | 1.41 | 4.1 μmoles per hr. per mg. of prot | 4.1 μmoles per hour per mg protein | 4.2 μmoles per hour per mg of prot | 3.8 μ moles of products formed per | 87 | 3.7 μ moles of products formed per | 13 | 0 μ moles of products formed per | 0 | 4.5 | 4.8 | 5.0 | 2.8 μ moles of products formed per | 82 | 2.5 μ moles of products formed per | 18 | –
